Structures can show the parent of a compound that is named as a salt.
What was measured:
HSP90α = HSP90α (Homo sapiens, UniProt P07900); test: HSP90α Binding Fluorescent Polarization (FP) Assay; settings: competition with FITC-geldanamycin; read-out: HSP90 Binding Potency
Procedure, shortened: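 Competitive FP assay in which compound displaces FITC-geldanamycin from recombinant HSP90α (28 μg/ml before addition) in BSA-containing buffer. Compounds in 3-fold series from 40 μM to 2.0 nM (dilution-plate concentrations), tested in duplicate. Readings after 30, 60 and 120 min at 25 °C; background-subtracted mP fitted to four-parameter log[inhibitor]-response curve.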

MV4-11 cells = test: MV4-11 Cell Cytotoxicity Assay; format: cell-based, human; settings: CCK-8; for IC50 at 72 h: human, MV4-11 cells
Source text: % Inhibition=100−(D−B)/(S−B)*100%.
S: The absorbance of the maximum (cells with DMSO)
B: The absorbance of the minimum (medium with DMSO)

BRD4 (BD1+BD2) = target: T1, BRD4 (BD1+BD2) (Homo sapiens, UniProt O60885); settings: read-out: BRD4 Binding Potency
T1 construct: 1.8 μg/ml recombinant BRD4 (BD1+BD2 domains) protein

Molecule	IC50 (HSP90α) [nM]	IC50 at 72 h (MV4-11 cells) [nM]	IC50 (BRD4 (BD1+BD2)) [nM]	IC50 (MV4-11 cells; 72 hr) [nM]
Cc1sc2c(c1C)C(c1ccc(Cl)cc1)=N[C@@H](CC(=O)N1CCC(CN3CCN(Cc4ccc(-n5c(C(=O)NC(C)C)nnc5-c5cc(C(C)C)c(O)cc5O)cc4)CC3)CC1)c1nnc(C)n1-2 [Compound 108, (S)-4-(4-((4-((1-(2-(4-(4-chlorophenyl)-2,3,9-trimethyl-6H-thieno[3,2-f][1,2,4]triazolo[4,3-a][1,4]diazepin-6-yl)acetyl)piperidin-4-yl)methyl)piperazin-1-yl)methyl)phenyl)-5-(2,4-dihydroxy-5-isopropylphenyl)-N-isopropyl-4H-1,2,4-triazole-3-carboxamide, trifluoroacetic acid]	> 1000	100 to 1000	> 1000	
Cc1sc2c(c1C)C(c1ccc(Cl)cc1)=N[C@@H](CC(=O)NCC(=O)NCCOc1ccc(-n3c(O)nnc3-c3cc(C(C)C)c(O)cc3O)cc1)c1nnc(C)n1-2 [Compound 54, (S)-2-(4-(4-chlorophenyl)-2,3,9-trimethyl-6H-thieno[3,2-f][1,2,4]triazolo[4,3-a][1,4]diazepin-6-yl)-N-(2-((2-(4-(3-(2,4-dihydroxy-5-isopropylphenyl)-5-hydroxy-4H-1,2,4-triazol-4-yl)phenoxy)ethyl)amino)-2-oxoethyl)acetamide]	< 100	100 to 1000	100 to 1000	
Cc1sc2c(c1C)C(c1ccc(Cl)cc1)=N[C@@H](CC(=O)N(C)[C@H](C)c1ccc(CN3CCC(Cc4ccc(-n5c(O)nnc5-c5cc(C(C)C)c(O)cc5O)cc4)CC3)cc1)c1nnc(C)n1-2 [Compound 93, 2-((S)-4-(4-chlorophenyl)-2,3,9-trimethyl-6H-thieno[3,2-f][1,2,4]triazolo[4,3-a][1,4]diazepin-6-yl)-N—((R)-1-(4-((4-(4-(3-(2,4-dihydroxy-5-isopropylphenyl)-5-hydroxy-4H-1,2,4-triazol-4-yl)benzyl)piperidin-1-yl)methyl)phenyl)ethyl)-N-methylacetamide, trifluoroacetic acid]	100 to 1000	< 100	100 to 1000	
CCc1cc(-c2nnc(C(N)=O)n2-c2ccc(CN3CCN(CC4CCN(C(=O)C[C@@H]5N=C(c6ccc(Cl)cc6)c6c(sc(C)c6C)-n6c(C)nnc65)CC4)CC3)cc2)c(O)cc1O [Compound 106, (S)-4-(4-((4-((1-(2-(4-(4-chlorophenyl)-2,3,9-trimethyl-6H-thieno[3,2-f][1,2,4]triazolo[4,3-a][1,4]diazepin-6-yl)acetyl)piperidin-4-yl)methyl)piperazin-1-yl)methyl)phenyl)-5-(5-ethyl-2,4-dihydroxyphenyl)-4H-1,2,4-triazole-3-carboxamide, trifluoroacetic acid]	100 to 1000	< 100	100 to 1000	
CC[C@@H](C)Nc1cc(C(=O)NC2C[C@H]3CC[C@H](C2)N3c2ccc(C(=O)Nc3ccc(CN4CCN(CC5CCN(C(=O)C[C@@H]6N=C(c7ccc(Cl)cc7)c7c(sc(C)c7C)-n7c(C)nnc76)CC5)CC4)cc3)cn2)c(C)cc1C(N)=O (stereo partly drawn) [Compound 26, 5-((R)-sec-butylamino)-N1-((1R,5R)-8-(5-((4-((4-((1-(2-((6S)-4-(4-chlorophenyl)-2,3,9-trimethyl-6H-thieno[3,2-f][1,2,4]triazolo[4,3-a][1,4]diazepin-6-yl)acetyl)piperidin-4-yl)methyl)piperazin-1-yl)methyl)phenyl)carbamoyl)pyridin-2-yl)-8-azabicyclo[3.2.1]octan-3-yl)-2-methylterephthalamide, formic acid]	> 1000	< 100	100 to 1000	
(S)—N-(4′-((1-((S)-(2-(4-(4-chlorophenyl)-2,3,9-trimethyl-6H-thieno[3,2-f][1,2,4]triazolo[4,3-a][1,4]diazepin-6-yl)acetyl)glycyl)piperidin-4-yl)oxy)-2′-(2-(dimethylamino)ethoxy)-[1,1′-biphenyl]-4-yl)-3′,6-dimethoxy-[1,1′-biphenyl]-3-carboxamide [Compound 137]	> 1000		100 to 1000	100 to 1000
CCc1cc(-c2nnc(O)n2-c2ccc(CN3CCN(CC4CCN(C(=O)C[C@@H]5N=C(c6ccc(Cl)cc6)c6c(sc(C)c6C)-n6c(C)nnc65)CC4)CC3)cc2)c(O)cc1O [Compound 10, (S)-2-(4-(4-chlorophenyl)-2,3,9-trimethyl-6H-thieno[3,2-f][1,2,4]triazolo[4,3-a][1,4]diazepin-6-yl)-1-(4-((4-(4-(3-(5-ethyl-2,4-dihydroxyphenyl)-5-hydroxy-4H-1,2,4-triazol-4-yl)benzyl)piperazin-1-yl)methyl)piperidin-1-yl)ethan-1-one hydrochloride]	100 to 1000	< 100	100 to 1000	
Cc1sc2c(c1C)C(c1ccc(Cl)cc1)=N[C@@H](CC(=O)NCC1CCN(C(=O)C3CCN(Cc4ccc(-n5c(O)nnc5-c5cc(C(C)C)c(O)cc5O)cc4)CC3)CC1)c1nnc(C)n1-2 [Compound 53, (S)-2-(4-(4-chlorophenyl)-2,3,9-trimethyl-6H-thieno[3,2-f][1,2,4]triazolo[4,3-a][1,4]diazepin-6-yl)-N-((1-(1-(4-(3-(2,4-dihydroxy-5-isopropylphenyl)-5-hydroxy-4H-1,2,4-triazol-4-yl)benzyl)piperidine-4-carbonyl)piperidin-4-yl)methyl)acetamide, trifluoroacetic acid]	100 to 1000	< 100	100 to 1000	
Cc1sc2c(c1C)C(c1ccc(Cl)cc1)=N[C@@H](CC(=O)N1CCC(CCN3CCC(Cc4ccc(-n5c(O)nnc5-c5cc(C(C)C)c(O)cc5O)cc4)CC3)CC1)c1nnc(C)n1-2 [Compound 80, (S)-2-(4-(4-chlorophenyl)-2,3,9-trimethyl-6H-thieno[3,2-f][1,2,4]triazolo[4,3-a][1,4]diazepin-6-yl)-1-(4-(2-(4-(4-(3-(2,4-dihydroxy-5-isopropylphenyl)-5-hydroxy-4H-1,2,4-triazol-4-yl)benzyl)piperidin-1-yl)ethyl)piperidin-1-yl)ethan-1-one, trifluoroacetic acid]	100 to 1000	< 100	< 100	
Cc1sc2c(c1C)C(c1ccc(Cl)cc1)=N[C@@H](CC(=O)N1CCC(CN3CCC(Cc4ccc(-n5c(C(=O)NCC(F)(F)F)nnc5-c5cc(C(C)C)c(O)cc5O)cc4)CC3)CC1)c1nnc(C)n1-2 [Compound 85, (S)-4-(4-((1-((1-(2-(4-(4-chlorophenyl)-2,3,9-trimethyl-6H-thieno[3,2-f][1,2,4]triazolo[4,3-a][1,4]diazepin-6-yl)acetyl)piperidin-4-yl)methyl)piperidin-4-yl)methyl)phenyl)-5-(2,4-dihydroxy-5-isopropylphenyl)-N-(2,2,2-trifluoroethyl)-4H-1,2,4-triazole-3-carboxamide, formic acid]	100 to 1000	< 100	100 to 1000	
Cc1nn(-c2ccc(C(N)=O)c(NCCOCCOCCNC(=O)C[C@@H]3N=C(c4ccc(Cl)cc4)c4c(sc(C)c4C)-n4c(C)nnc43)c2)c2c1C(=O)CC(C)(C)C2 [Compound 21, 2-((2-(2-(2-(2-((6S)-4-(4-chlorophenyl)-2,3,9-trimethyl-6H-thieno[3,2-f][1,2,4]triazolo[4,3-a][1,4]diazepin-6-yl)acetamido)ethoxy)ethoxy)ethyl)amino)-4-(3,6,6-trimethyl-4-oxo-4,5,6,7-tetrahydro-1H-indazol-1-yl)benzamide, trifluoroacetic acid]	> 1000	100 to 1000	> 1000	
Cc1sc2c(c1C)C(c1ccc(Cl)cc1)=N[C@@H](CCNCC1CCN(C(=O)C3CCN(Cc4ccc(-n5c(O)nnc5-c5cc(C(C)C)c(O)cc5O)cc4)CC3)CC1)c1nnc(C)n1-2 [Compound 64, (4-(((2-((6S)-4-(4-chlorophenyl)-2,3,9-trimethyl-6H-thieno[3,2-f][1,2,4]triazolo[4,3-a][1,4]diazepin-6-yl)ethyl)amino)methyl)piperidin-1-yl)(1-(4-(3-(2,4-dihydroxy-5-isopropylphenyl)-5-hydroxy-4H-1,2,4-triazol-4-yl)benzyl)piperidin-4-yl)methanone, trifluoroacetic acid]	100 to 1000	100 to 1000	100 to 1000	
Cc1sc2c(c1C)C(c1ccc(Cl)cc1)=N[C@@H](CC(=O)N1CCC(Cc3ccc(-n4c(O)nnc4-c4cc(C(C)C)c(O)cc4O)cc3)CC1)c1nnc(C)n1-2 [Compound 3, 2-((6S)-4-(4-chlorophenyl)-2,3,9-trimethyl-6H-thieno[3,2-f][1,2,4]triazolo[4,3-a][1,4]diazepin-6-yl)-1-(4-(4-(3-(2,4-dihydroxy-5-isopropylphenyl)-5-hydroxy-4H-1,2,4-triazol-4-yl)benzyl)piperidin-1-yl)ethanone, trifluoroacetic acid]	100 to 1000	< 100	> 1000	
Cc1sc2c(c1C)C(c1ccc(Cl)cc1)=N[C@H](CC(=O)N1CCC(CN3CCN(Cc4ccc(-n5c(O)nnc5-c5cc(C(C)C)c(O)cc5O)cc4)CC3)CC1)c1nnc(C)n1-2 [Compound 125, (R)-2-(4-(4-chlorophenyl)-2,3,9-trimethyl-6H-thieno[3,2-f][1,2,4]triazolo[4,3-a][1,4]diazepin-6-yl)-1-(4-((4-(4-(3-(2,4-dihydroxy-5-isopropylphenyl)-5-hydroxy-4H-1,2,4-triazol-4-yl)benzyl)piperazin-1-yl)methyl)piperidin-1-yl)ethan-1-one hydrochloride]	< 100	< 100	> 1000	
